Columns and labels:
[1] = system: subjects with alcohol use disorder; details: treatment of AUD, literature, cited from earlier work; for effect size (Cohen's D): meta-analyses
[2] = system: dopamine levels in the rat nucleus accumbens; test: in vivo microdialysis in the nucleus accumbens in awake freely moving rats; parameters: species or system Wistar rats; details: for extracellular dopamine levels in the dialysate (percent of baseline): FIG. 1, varenicline 1.5 mg/kg, bupropion 2.5 mg/kg i.p., sampling 140 minutes, preliminary data; for extracellular DA levels / DA release in the rat nAc: FIGS. 1 to 5, overall statement
Experimental: Shown are dopamine levels measured in the dialysate expressed as percent of baseline. Drugs (mg/kg) or control solution (NaCl) was injected i.p. directly after time-point 0.
FIGS. 2 and 3 show results from in vivo microdialysis in the nucleus accumbens in awake freely moving male Wistar rats after injection of varenicline (1.5 mg/kg, i.p.) or bupropion (2.5, 5 and 10 mg/kg i.p.) Dopamine levels in the dialysate are expressed as percent of baseline. Drugs or control solution (NaCl) was injected directly after time-point 0.
FIG. 5 illustrates the Area Under the Curve (AUC) 0-140 minutes (Bup 5 vs Var+Bup 5: p<0.001.
A). Experiments that examine the effects of varenicline and bupropion (separately and in combination) on dopamine release in the nucleus accumbens (nAc; a central part of the brain reward system) using in vivo microdialysis in awake, freely moving rats have commenced. […] Rats were surgically implanted with a microdialysis probe into nAc, which two days later was coupled to a perfusion pump allowing liquid sampling from the extracellular space. After a stable baseline was obtained varenicline (1.5 mg/kg, […].), bupropion (2.5 mg/kg, i.p.) or control solution was administered and sampling continued for 140 minutes. […] Further, as long as bupropion produces an effect, this effect adds to the varenicline effect when the two drugs are given in combination.

relapses to drinking = details: chronic i.m. administration (Wiesbeck et al., 2001); cited from earlier work
[3] = system: nicotinic acetylcholine receptors (nAChRs); details: systemic administration or site-directed injections in the VTA (Blomqvist et al., 1996; Ericson et al., 1998); cited from earlier work
[4] = system: ethanol-induced stimulation and euphoria; details: McKee et al. (2009); cited from earlier work
[5] = system: alcohol dependent individuals; details: cited from earlier work

SMILES	Numbers-needed-to-treat (NNT) [1]	effect size (Cohen's D) [1]	extracellular dopamine levels in the dialysate (percent of baseline) [2]	extracellular DA levels / DA release in the rat nAc [2]	further results
CC(=O)NCCCS(=O)(=O)O [Acamprosate]	7.5	0.32			
O=C1CC[C@@]2(O)[C@H]3Cc4ccc(O)c5c4[C@@]2(CCN3CC2CC2)[C@H]1O5 [Naltrexone]	8.6	0.2			
CC(NC(C)(C)C)C(=O)c1cccc(Cl)c1 (stereo not shown) [bupropion]			raise extracellular dopamine levels	increase extracellular DA levels	
OCCN1CCN(CC/C=C2\c3ccccc3Sc3ccc(C(F)(F)F)cc32)CC1 [fluphentixole]					relapses to drinking as compared to placebo (relapses to drinking): worsened the condition
CNC1(C)C2CCC(C2)C1(C)C (stereo not shown) [mecamylamine]					ethanol intake and preference [3]: reduces
c1cnc2cc3c(cc2n1)[C@@H]1CNC[C@H]3C1 [varenicline]			raise extracellular dopamine levels	increase extracellular DA levels	ethanol-induced stimulation and euphoria [4]: blocked; effect ([5]; females (O'Malley et al., 2017)): no effect; effect size ([5]; male alcoholics (O'Malley et al., 2017)): 0.45

— patent US11318143B2, “Treatment of alcohol use disorder” (priority 2017, dated 2022)
